Data as given in US12691108B2, “Methods for treating vascular malformations” (Deciphera Pharmaceuticals, LLC, priority 2019, dated 2026).

Legend:
[1] = test system: TIE2 mutant HUVECs; test: Mutant TIE2-transfected gene expression assay (quantitative PCR); assay type: cell-based, human; details: 100 nM, 48 hours, normalized to GAPDH
Procedure: (§1) HUVECs used for in vitro work were kindly provided by Dr. Lauri Eklund (Oulu, Finland). Briefly, cells were grown in endothelial cell growth media (Tebu-Bio, Boechout, Belgium) containing 10% fetal calf serum (Sigma-Aldrich, Diegem, Belgium) at 37 degrees Celsius, 5% CO2, and 95% humidity. Cells were allowed to expand until reaching 90-95% confluence at which point they were subcultured or harvested for assay use.
HUVEC cells (5×10^5 cells/plate) stably expressing WT or TIE2 mutants R849W, L914F, R1099*, Y897C/R915C, Y897F/F915L, or T1105N/T1106P were added to a 10 cm plate coated with attachment factor solution (Tebu-Bio, Boechout, Belgium) in endothelial cell growth media (Tebu-Bio, Boechout, Belgium) containing 10% fetal calf serum (Sigma-Aldrich, Diegem, Belgium). Cells were then incubated for 2 days at 37 degrees Celsius, 5% CO2, and 95% humidity. Next, test compound or DMSO was added to the wells (0.068% final DMSO concentration). The plates were then further incubated for 48 hours at 37 degrees Celsius, 5% CO2, and 95% humidity. RNA was extracted by collecting the cells into TriPure isolation reagent (Sigma-Aldrich, Diegem, Belgium). Subsequently, cDNA from extracted RNA was synthesized using RevertAid H Minus first strand cDNA synthesis kit (Thermo Fischer Scientific, Merelbeke, Belgium). Quantitative PCR was carried out using LightCycler480 SYBRGreen master mix and a LightCycler 480 II instrument (Roche, Switzerland). cDNA for ANGPT2, PDGFB, ADAMTS1, ADAMTS9, PLAT, and PLAU were quantified and normalized to the expression from the housekeeping gene GAPDH.

[2] = test system: AKT; test: Mutant TIE2-transfected HUVEC Western blot assay: AKT phosphorylation downstream of TIE2; assay type: cell-based, human; details: 100 nM, 4 hours, HUVECs with WT TIE2 and TIE2 mutants, presence or absence of ANGPT1 stimulation
Procedure: as §1
(§2) HUVEC cells (2.5×10^5 cells/well) stably expressing WT or TIE2 mutants R849W, L914F, R1099*, Y897C/R915C, Y897F/F915L, or T1105N/T1106P were added to a 6-well plate coated with attachment factor solution (Tebu-Bio, Boechout, Belgium) in 2 mL of endothelial cell growth media (Tebu-Bio, Boechout, Belgium) containing 10% fetal calf serum (Sigma-Aldrich, Diegem, Belgium). Cells were subsequently incubated overnight at 37 degrees Celsius, 5% CO2, and 95% humidity. The next day test compound or DMSO was added to the wells (0.068% final DMSO concentration). The plates were then incubated for 4 hours at 37 degrees Celsius, 5% CO2, and 95% humidity. Next, cells were stimulated with 1 μg/mL ANGPT1 for 15 minutes. Cells were lysed and pTIE2, TIE2, b-actin, pAKT (S473), pAKT (T308), AKT, pSTAT1, and STAT1 were detected by Western blot.

[3] = test system: HUVEC cells expressing mutant TIE2-L914F (VM lesions in matrigel plugs); test: Venous malformation mouse model, diet from day of injection (Day 0); assay type: in vivo, athymic nude male mice
Procedure: (§3) For the in vivo model, fresh HUVEC transfectants were made using lentiviral infection. […]. Subsequently, 25,000 HUVECs/well (LGC Standards sarl, France) were grown on a 24-well plate for 24 hrs, infected with 500 μl of the lentivirus-TIE2-L914F mix, then cultured for another 48 hrs, collected, then frozen.
(§4) To evaluate the effect of the compound on vascular malformation (VM) lesion development in vivo, HUVEC cells (2.5×10^6) expressing mutant TIE2-L914F were cultured, detached, then resuspended in 200 μL matrigel (Corning). The mixture was injected subcutaneously into the dorsal back of athymic nude male mice, aged 5-7 weeks (Charles River). […] At post-implant day 7 or 16, mice were euthanized and the skin surrounding each matrigel plug was excised, then pinned flat onto a styrofoam board and fixed in 10% neutral buffered formalin solution (Sigma-Aldrich, Diegem, Belgium) overnight. Matrigel plugs were removed from the murine skin, dehydrated in a series of graded alcohol, and embedded in paraffin. Paraffin-embedded plugs were then cut into 5 μm sections for histological analysis. After de-paraffinization in xylene and rehydration in a series of degraded alcohol, sections were subjected to heat-induced antigen-retrieval in 0.1 M citrate buffer, pH 6.0, with or without 0.05% Tween-20. For immunohistochemical staining, sections were blocked with 3% H2O2 (Sigma-Aldrich, Diegem, Belgium), incubated with a biotinylated antibody against the human endothelial cell marker Ulex europaeus Agglutinin 1 (UEA1) (Vector labs, Brussels, Belgium), followed by a horseradish peroxidase-conjugated streptavidin secondary antibody (GE Healthcare, Diegem, Belgium), then in a DAB solution (Vector labs, Brussels, Belgium). Sections were counterstained with hematoxylin and mounted with VectaMount permanent mounting medium (Vector labs, Brussels, Belgium). For immunofluorescent staining (IF), sections were incubated with primary antibodies that recognize UEA1, the smooth muscle layer marker SMA (clone 1A4, Sigma-Aldrich, Diegem, Belgium), phosphorylated-TIE2(Y772) (Bioke, Leiden, Netherlands), or total TIE2 (Santa Cruz, Heidelberg, Germany). Secondary antibodies used were conjugated to Alexa488-, Alexa649-, or CY5-fluorophores. Slides were mounted with VectaShield Hardset mounting medium with DAPI (Vector labs, Brussels, Belgium). Images were acquired via a Panoramic 250 Flash III digital slide scanner (3D Histech, Hungary) and visualized with Caseviewer version 2.2 software (3D Histech, Hungary). The average vessel area was quantitated by making snapshots at a 20× objective of at least 5 areas of each matrigel plug and measuring the area of a least 6 UEA+ vessels each using ImageJ software.
To evaluate the overall vascular morphology within the explants, wholemount IF of vessels within matrigel plugs was done. After excising skins with matrigel plugs attached and flat-fixing them overnight in 10% neutral buffered formalin, an approximately 100-200 μm piece of the plug was sliced off and washed in 1×PBS. The pieces were blocked overnight in 1% BSA (v/v) (Gibco) and 0.3% Triton-X100 (Sigma-Aldrich, Diegem, Belgium) in 1×PBS, then incubated in UEA1 for at least 72 hours, followed by in CY5-streptavidin secondary antibody (Vector labs, Brussels, Belgium). Pieces were then post-fixed in 10% NBF for 10 min, then mounted with Fluormount G (Thermo Fischer Scientific, Merelbeke, Belgium). Z-stack images were acquired with a Zeiss cell observer spinning disk confocal microscope (Zeiss, Germany); 3-D projections of Z-stacks were generated by the AriVis4D software. […] Non-vascularized UEA+ cells were also present but the expression is reduced. Also conducted were comparisons of treated and untreated VM lesions at day 16 with wild type and L914F TIE2 mutants in which treatment began at day 0 (FIG. 18A-D) or day 7 (FIG. 19A-C).

[4] = test system: STAT1; test: Mutant TIE2-transfected HUVEC Western blot assay: STAT1 phosphorylation downstream of TIE2; assay type: cell-based, human; details: 100 nM, 4 hours, HUVECs with WT TIE2 and TIE2 mutants, presence or absence of ANGPT1 stimulation
Procedure: as §1, §2

[5] = test system: HUVEC cells expressing mutant TIE2-L914F (VM lesions in matrigel plugs); test: Venous malformation mouse model, previously established VM lesions, diet from post-implant day 7; assay type: in vivo, athymic nude male mice
Procedure: as §3
as §4, with “For immunofluorescent staining (IF), sections were incubated with primary antibodies that recognize UEA1, the smooth muscle layer marker SMA (clone 1A4, Sigma-Aldrich, Diegem, Belgium), phosphorylated-TIE2(Y772) (Bioke, Leiden, Netherlands), or total TIE2 (Santa Cruz, Heidelberg, Germany). Secondary antibodies used were conjugated to Alexa488-, Alexa649-, or CY5-fluorophores. Slides were mounted with VectaShield Hardset mounting medium with DAPI (Vector labs, Brussels, Belgium). Images were acquired via a Panoramic 250 Flash III digital slide scanner (3D Histech, Hungary) and visualized with Caseviewer version 2.2 software (3D Histech, Hungary).” left out, “software. […]” for “software.”

[6] = test system: TIE2 mutant HUVECs; test: Mutant TIE2-transfected HUVEC cell morphology assay; assay type: cell-based, human; details: 100 nM, imaged at 24 and 48 hours, TIE2 mutant HUVECs compared with WT TIE2 HUVECs
Procedure: as §1
HUVEC cells (5×10^5 cells/plate) stably expressing WT or TIE2 mutants R849W, L914F, R1099*, Y897C/R915C, Y897F/F915L, or T1105N/T1106P were added to a 10 cm plate coated with attachment factor solution (Tebu-Bio, Boechout, Belgium) in 6 mL of endothelial cell growth media (Tebu-Bio, Boechout, Belgium) containing 10% fetal calf serum (Sigma-Aldrich, Diegem, Belgium). Cells were then incubated for 2 days at 37 degrees Celsius, 5% CO2, and 95% humidity. Next, test compound or DMSO was added to the wells (0.068% final DMSO concentration). The plates were then further incubated for 48 hours at 37 degrees Celsius, 5% CO2, and 95% humidity. The cells were imaged by microscopy at 24 hours and 48 hours after addition of compound.

[7] = test system: WT TIE2 and TIE2 mutants; test: Mutant TIE2-transfected HUVEC Western blot assay: TIE2 phosphorylation; assay type: cell-based, human; details: 100 nM, 4 hours, HUVECs with WT TIE2 and TIE2 mutants, presence or absence of ANGPT1 stimulation
Procedure: as §1, §2

[8] = test system: TIE2 mutant expressing HUVECs; test: Mutant TIE2-transfected fibronectin assay (extracellular matrix); assay type: cell-based, human; details: 100 nM, 48 hours, TIE2 mutant HUVECs versus WT TIE2
Procedure: as §1
HUVEC cells (3×10^5 cells/well) stably expressing WT or TIE2 mutants R849W, L914F, R1099*, Y897C/R915C, Y897F/F915L, or T1105N/T1106P were added to a 6-well plate coated with attachment factor solution (Tebu-Bio, Boechout, Belgium) in endothelial cell growth media (Tebu-Bio, Boechout, Belgium) containing 10% fetal calf serum (Sigma-Aldrich, Diegem, Belgium). Cells were then incubated for 24 hours at 37 degrees Celsius, 5% CO2, and 95% humidity. Next, test compound or DMSO was added to the wells (0.068% final DMSO concentration). The plates were then further incubated for 48 hours at 37 degrees Celsius, 5% CO2, and 95% humidity. Cells were switched into 2% FBS for overnight. Intracellular fibronectin levels were lower in transfectants, thus cellular lysates were collected and used as controls. […]

[9] = diet equivalent to 10 mg/kg from Day 0, post-implant day 7
[10] = diet equivalent to 10 mg/kg from Day 0, post-implant day 7, versus control diet
[11] = diet equivalent to 10 mg/kg from Day 0, post-implant day 16

CNC(=O)c1cc(Oc2ccc(NC(=O)Nc3cc(C(C)(C)C)nn3-c3ccc4ncccc4c3)c(F)c2)ccn1 [compound of Formula I, rebastinib]
expression of ADAMTS1 RNA [1]: decreased expression | expression of ADAMTS9 RNA [1]: decreased expression | expression of ANGPT2 RNA [1]: increased expression | expression of PDGFB RNA [1]: increased expression | expression of PLAT RNA [1]: decreased expression | expression of PLAU RNA [1]: decreased expression | inhibition of AKT Ser473 phosphorylation [2]: complete inhibition | inhibition of AKT Thr308 phosphorylation [2]: complete inhibition | gross appearance of blood-filled vascular channels (macroscopic view of lesions) ([3]; diet equivalent to 10 mg/kg from Day 0, compared to untreated mutants): more controlled and less severe | overall vascular morphology (wholemount IF) [3, 9]: more normal, tubular vessels were seen | smooth muscle cell/pericyte coverage (SMA staining) [3, 9]: displayed a few SMA positive cells | average area of vessels within the plugs [3, 10]: drastically less | expression of pTIE2 in ECs [3, 10]: weaker | overall vascular morphology (wholemount IF) [3, 11]: largely normalized | smooth muscle cell/pericyte coverage (SMA+ cells) [3, 11]: surrounded more consistently by SMA+ cells | vessel size in lesions ([3]; diet equivalent to 10 mg/kg from Day 0, post-implant day 16, versus control diet and untreated): much smaller vessels | pTIE2 in ECs ([3]; diet equivalent to 10 mg/kg from Day 0, post-implant day 16, versus untreated): drastically reduced | VM development ([3]; mice fed compound-infused food): reduced VM development | inhibition of STAT1 phosphorylation [4]: complete inhibition | severity of established VMs ([5]; diet from post-implant day 7): ameliorated the severity of VMs | average vascular area of vessels ([5]; diet from post-implant day 7, explants day 16): moderately reduced | smooth muscle cell layer coverage ([5]; diet from post-implant day 7, explants day 16, versus control diet): improved smooth muscle cell layer coverage | cellular morphology [6]: restored cellular morphology | inhibition of TIE2 phosphorylation [7]: complete inhibition | fibronectin levels in the extracellular matrix [8]: restored fibronectin levels
